What was measured:
[1] = biological target: human dopamine D3 receptor (Homo sapiens, UniProt P35462); assay: Binding to human dopamine D3 receptor, [3H]spiperone; details: cloned human receptor
[2] = biological target: human 5HT1Dα receptor (Homo sapiens, UniProt P28221); assay: Binding to human 5HT1Dα receptor, [3H]serotonin; details: cloned human receptor
[3] = system: NPY-induced feeding behavior in satiated rats; assay: NPY-induced food intake in satiated rats; format: in vivo, rat; details: compound 30 mg/kg i.p., then 300 pmole NPY i.c.v.; 4 hours after NPY
Protocol: The rats are individually housed in stainless steel cages and maintained on an 11:13 h light-dark cycle (lights off at 18:00 h) at a controlled temperature of 21-23° C. at all times. Water and food (NAFAG lab chow pellets NAFAG, Gossau, Switzerland) are available ad libidum.
The guide cannula is placed on the dura. Injection cannulas extend the guide cannulas −3.8 mm ventrally to the skull surface. Animals are allowed at least 4 days of recovery postoperatively before being used in the experiments. Cannula placement is checked postoperatively by testing all rats for their drinking response to a 50 ng intracerebroventricular (i.c.v.) injection of angiotensin II. Only rats which drink at least 2.5 ml of water within 30 min. after angiotensin II injection are used in the feeding studies.
All injections are made in the morning 2 hours after light onset. Peptides are injected in artificial cerebrospinal fluid (ACSF) in a volume of 5 μl.
Pellets are then removed from the cage subsequently at each selected time point and replaced with a new set of preweighed pellets. The food intake of animals treated with test compound may be calculated as a percentage of the food intake of control animals i.e., animals treated with vehicle. Alternatively, food intake for each group of animals subjected to a particular experimental condition may be expressed as the mean±S.E.M. Statistical analysis is performed by analysis of variance using the Student-Newman-Keuls test.
Food intake is reported as the mean±S.E.M. intake for a group of animals.

[4] = biological target: T1, 5HT1a receptor (Homo sapiens, UniProt P08908); assay: Binding to cloned human 5HT1a receptor
T1 sequence (P08908 1-422): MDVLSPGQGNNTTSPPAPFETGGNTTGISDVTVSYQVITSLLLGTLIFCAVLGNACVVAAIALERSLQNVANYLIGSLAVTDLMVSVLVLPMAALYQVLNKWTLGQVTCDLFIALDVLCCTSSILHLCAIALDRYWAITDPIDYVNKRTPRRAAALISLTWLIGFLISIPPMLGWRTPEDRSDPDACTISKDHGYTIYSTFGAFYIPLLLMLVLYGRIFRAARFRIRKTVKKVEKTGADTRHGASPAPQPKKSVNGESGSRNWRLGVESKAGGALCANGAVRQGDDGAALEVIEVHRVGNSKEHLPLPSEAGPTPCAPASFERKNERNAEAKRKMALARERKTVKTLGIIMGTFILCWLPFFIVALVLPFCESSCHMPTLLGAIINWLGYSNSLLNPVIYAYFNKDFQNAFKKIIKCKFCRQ

[5] = biological target: T2, human Y2 receptor (Homo sapiens, UniProt P49146); format: binding; details: read-out: Binding Affinity (Ki (nM) vs. ^125I-PYY) Human Receptor Y2; Table 14
T2 sequence (P49146 1-381): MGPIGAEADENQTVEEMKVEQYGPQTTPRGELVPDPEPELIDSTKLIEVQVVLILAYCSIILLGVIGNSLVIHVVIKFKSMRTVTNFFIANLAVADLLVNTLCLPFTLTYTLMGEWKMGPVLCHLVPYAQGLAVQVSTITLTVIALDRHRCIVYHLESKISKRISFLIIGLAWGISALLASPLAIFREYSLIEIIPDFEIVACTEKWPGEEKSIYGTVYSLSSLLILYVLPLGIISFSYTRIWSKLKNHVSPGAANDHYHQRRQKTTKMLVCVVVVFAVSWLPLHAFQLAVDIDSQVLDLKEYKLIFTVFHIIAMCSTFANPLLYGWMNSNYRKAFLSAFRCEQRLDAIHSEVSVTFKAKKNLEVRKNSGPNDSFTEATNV

[6] = biological target: T3, human α1a receptor (Homo sapiens, UniProt P35348); assay: Binding to cloned human α1a adrenergic receptor
T3 sequence (P35348 1-466): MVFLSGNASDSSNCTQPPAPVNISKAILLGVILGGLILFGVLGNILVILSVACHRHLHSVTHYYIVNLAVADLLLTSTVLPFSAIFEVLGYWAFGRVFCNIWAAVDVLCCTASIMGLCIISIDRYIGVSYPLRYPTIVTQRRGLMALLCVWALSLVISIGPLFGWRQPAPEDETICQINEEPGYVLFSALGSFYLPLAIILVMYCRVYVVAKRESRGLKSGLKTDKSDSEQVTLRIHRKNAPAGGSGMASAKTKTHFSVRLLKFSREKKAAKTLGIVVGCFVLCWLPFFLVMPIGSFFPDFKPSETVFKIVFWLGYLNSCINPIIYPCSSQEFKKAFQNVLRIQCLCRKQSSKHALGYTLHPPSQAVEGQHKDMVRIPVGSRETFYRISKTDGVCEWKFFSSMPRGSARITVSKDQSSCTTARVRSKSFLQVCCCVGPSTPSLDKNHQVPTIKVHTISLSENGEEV

[7] = biological target: human 5HT1Dβ receptor (Homo sapiens, UniProt P28222); assay: Binding to human 5HT1Dβ receptor, [3H]serotonin; details: cloned human receptor
[8] = biological target: T4, human α2C receptor (Homo sapiens, UniProt P18825); assay: Binding to cloned human α2C adrenergic receptor, [3H]rauwolscine
T4 sequence (P18825 1-462): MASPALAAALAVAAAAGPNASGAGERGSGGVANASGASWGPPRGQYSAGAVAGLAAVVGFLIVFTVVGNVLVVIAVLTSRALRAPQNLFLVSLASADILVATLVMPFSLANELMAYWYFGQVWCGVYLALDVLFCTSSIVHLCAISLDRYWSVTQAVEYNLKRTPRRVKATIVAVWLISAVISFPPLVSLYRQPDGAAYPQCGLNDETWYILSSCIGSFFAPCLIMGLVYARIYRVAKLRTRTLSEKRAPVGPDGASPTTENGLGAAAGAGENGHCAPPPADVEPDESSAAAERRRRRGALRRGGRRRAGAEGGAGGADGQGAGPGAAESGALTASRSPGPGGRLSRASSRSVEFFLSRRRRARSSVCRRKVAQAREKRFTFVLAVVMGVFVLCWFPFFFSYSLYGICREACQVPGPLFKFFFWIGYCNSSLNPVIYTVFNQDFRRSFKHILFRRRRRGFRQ

Chain of human 5HT1Dα receptor (P28221 whole entry): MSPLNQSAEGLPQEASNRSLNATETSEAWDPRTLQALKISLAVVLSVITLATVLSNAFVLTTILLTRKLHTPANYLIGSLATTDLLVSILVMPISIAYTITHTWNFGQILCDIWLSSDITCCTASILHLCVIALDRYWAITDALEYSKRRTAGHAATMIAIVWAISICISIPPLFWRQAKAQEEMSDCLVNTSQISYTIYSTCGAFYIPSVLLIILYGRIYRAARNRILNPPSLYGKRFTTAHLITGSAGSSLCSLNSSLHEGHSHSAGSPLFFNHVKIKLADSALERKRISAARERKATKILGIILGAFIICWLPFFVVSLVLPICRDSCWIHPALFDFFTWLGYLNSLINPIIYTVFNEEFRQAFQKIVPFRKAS
Chain of human 5HT1Dβ receptor (P28222 whole entry): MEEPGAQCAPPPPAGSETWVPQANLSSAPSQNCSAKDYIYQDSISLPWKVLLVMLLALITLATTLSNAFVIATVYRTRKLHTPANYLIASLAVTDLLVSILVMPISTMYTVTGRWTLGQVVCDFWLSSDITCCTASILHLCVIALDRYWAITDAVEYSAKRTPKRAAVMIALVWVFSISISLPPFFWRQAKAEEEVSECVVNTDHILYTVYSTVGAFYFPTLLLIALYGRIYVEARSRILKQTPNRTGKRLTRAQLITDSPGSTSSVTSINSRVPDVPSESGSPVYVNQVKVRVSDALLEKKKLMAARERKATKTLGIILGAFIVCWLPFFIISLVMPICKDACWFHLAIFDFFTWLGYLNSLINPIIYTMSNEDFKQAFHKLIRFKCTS
Chain of human dopamine D3 receptor (P35462 whole entry): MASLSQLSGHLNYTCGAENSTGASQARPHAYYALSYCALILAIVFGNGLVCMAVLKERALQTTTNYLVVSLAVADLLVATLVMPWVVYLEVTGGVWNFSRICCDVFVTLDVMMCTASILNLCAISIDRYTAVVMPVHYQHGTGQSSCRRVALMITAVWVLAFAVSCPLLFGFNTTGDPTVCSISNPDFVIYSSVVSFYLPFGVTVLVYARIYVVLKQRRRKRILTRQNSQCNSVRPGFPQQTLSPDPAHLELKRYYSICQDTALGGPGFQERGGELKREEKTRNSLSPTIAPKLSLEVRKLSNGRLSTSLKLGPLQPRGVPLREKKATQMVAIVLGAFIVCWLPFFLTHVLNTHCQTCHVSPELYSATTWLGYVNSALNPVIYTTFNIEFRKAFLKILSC

Compound	Receptor (pKi) D3 [1]	Receptor (pKi) 5HT1Dα [2]	Food intake (g) mean ± S.E.M., NPY + compound [3]	Receptor (pKi) 5HT1a [4]	Ki [5]	Receptor (pKi) α1a [6]	Receptor (pKi) 5HT1Dβ [7]	Receptor (pKi) α2c [8]
Cl.O=S(=O)(NC[C@H]1CC[C@H](CNCC2CCc3ccccc3C2)CC1)c1cccc2ccccc12 (stereo partly drawn) [Compound 19]	6.69	6.04	1.5 ± 0.6 g	5.54	955 nM	7.47	–	–
Cl.O=[N+]([O-])c1ccccc1S(=O)(=O)NC[C@H]1CC[C@H](CNCC2CCc3ccccc3C2)CC1 (stereo partly drawn) [Compound 20]	6.35	5.94	–	–	7760 nM	7.72	5.37	7.39
Cl.Cl.Nc1ccccc1S(=O)(=O)NCC1CCC(CNCC2CCc3ccccc3C2)CC1 (stereo not drawn) [Compound 22]	–	5.98	–	6.56	7570 nM	7.34	5.41	7.15

Source: US6818445B2 (Synaptic Pharmaceutical Corporation, priority 1994, dated 2004)
